Results: US8461289B2, “Bioresorbable polymers synthesized from monomer analogs of natural metabolites” (Rutgers, The State University of New Jersey, priority 2006, dated 2013)
In brackets after ≈: the same amount, converted by molar mass. Read-outs that look alike come from different tables or passages of the source.

Experiment: Determination of solubility of monomers in PBS (HPLC of filtrate against calibration curve)
Type: physicochemical
Settings: monomer in PBS (pH 7.4), filtered; for solubility at 2 h: aqueous buffer, thermodynamic from solid
Method: About 30 mg of the monomer and 2 mL of PBS (pH 7.4) were added to a 2 dram vial. The vial was agitated on a vortex mixer for 2 h. If all the solid dissolved, more solid was added and agitation was continued. The mixture was filtered using a syringe filter to remove undissolved monomer. The clear filtrate was analyzed by HPLC by injecting 5 microliter of the filtrate. The area of the peak obtained was measured. A calibration curve was obtained by injecting known concentration of the monomer in methanol and plotting concentration against the area of the peaks obtained. Using this calibration curve the solubility of the monomer in PBS at ambient temperature was determined.
To determine the solubility at 37° C., the vials were placed in an incubator at 37° C. for 2 h. The mixture was then quickly filtered using syringe filter and then diluted 2× with PBS to prevent precipitation of the monomer. The solubility is determined using procedures similar to that used at room temperature solubility.

[1] = ambient temperature / 25° C., agitated 2 h

Row | solubility at 2 h (ambient temperature / 25° C., agitated 2 h, read-out: Solubility, mg/mL, 25° C.) [mg/mL] | solubility at 2 h (incubator at 37° C. for 2 h, diluted 2× with PBS, read-out: Solubility, mg/mL, 37° C.) [mg/mL] | Solubility, mg/mL, 37° C. (incubator at 37° C. for 2 h, diluted 2× with PBS) [mg/mL] | Structure (SMILES) | Solubility, mg/mL, 25° C. [1] [mg/mL]
1 | – | – | – | CCOC(=O)[C@H](Cc1ccc(O)cc1)NC(=O)CCc1ccc(O)cc1 [DAT-tyrosine ethyl ester (DTE), DAT-tyrosine ethyl ester, reference compound] | 0.74 (≈ 2.07 mM)
2 | – | – | – | CCOC(=O)C(Cc1ccc(Oc2ccc(O)cc2)cc1)NC(=O)CCc1ccc(O)cc1 (stereo not shown) [DAT-Thyronine ethyl ester] | <0.05
3 | 7.7 (≈ 27.4 mM) | 14.1 (≈ 50.2 mM) | – | CCOC(=O)[C@H](CO)NC(=O)CCc1ccc(O)cc1 [DAT-serine ethyl ester, Desaminotyrosyl Serine Ethyl Ester] | –
4 | – | – | 0.43 (≈ 1.08 mM) | CCOC(=O)C(Cc1c[nH]c2ccc(O)cc12)NC(=O)CCc1ccc(O)cc1 (stereo not shown) [DAT-5-hydroxytryptophan ethyl ester, DAT-5-Hydroxytryptophan Ethyl Ester] | 0.15 (≈ 0.378 mM)
5 | – | – | – | CCOC(=O)C1CC(O)CN1C(=O)CCc1ccc(O)cc1 (stereo not drawn) [DAT-trans-Hydroxyproline ethyl ester, DAT-Hydroxyproline Ethyl Ester] | 12 (≈ 39 mM)
